Literature values as cited in PMC11577316, “Tuning the Properties of Rigidified Acyclic DEDPA^2– Derivatives for Application in PET Using Copper-64” (Inorganic Chemistry, 2024).
Like-named read-outs stand apart in the source and are kept apart here. Marks after values point to notes of the source that are not given here.

What was measured:
[1] = design: method as in PMID 22583103; conditions: vs Ag/AgCl ref 28
[2] = not given; remark: listed apart in the source
[3] = not given; remark: listed apart in the source

O=C([O-])c1cccc(CNCCNCc2cccc(C(=O)[O-])n2)n1.[64Cu+2] [[^64Cu(DEDPA)]]
stability in serum: poor stability in serum

O=C([O-])c1cccc(CNCCNCc2cccc(C(=O)[O-])n2)n1.[Cu+2] [[Cu(DEDPA)]]
irreversible reduction peak [1]: −1.12 V

O=C(O)c1cccc(CNCCNCc2cccc(C(=O)O)n2)n1 [DEDPA^2–, 6,6′-((ethane-1,2-diylbis(azanediyl))bis(methylene))dipicolinic acid]
log K1^H ([2]; 0.1 M (Me4N)(NO3) ref 25): 8.69
log K2^H ([2]; 0.1 M (Me4N)(NO3) ref 25): 6.18
log K3^H ([2]; 0.1 M (Me4N)(NO3) ref 25): 3.08
log K4^H ([2]; 0.1 M (Me4N)(NO3) ref 25): 2.33
log K1^H ([2]; 0.15 M NaCl ref 26): 9.00
log K2^H ([2]; 0.15 M NaCl ref 26): 6.30
log K3^H ([2]; 0.15 M NaCl ref 26): 3.06
log K4^H ([2]; 0.15 M NaCl ref 26): 2.59
log KCuL ([3]; Cu(II) complex, 0.15 M NaCl ref 28): 19.16 ^d
pCu ([3]; –log [Cu(II)]free, [L]tot = 10 μM, [Cu(II)]tot = 1 μM, column footnote c: 0.15 M NaCl ref 26): 18.5
